From US20050009840A1 (SUGEN, INC., priority 2003, published 2005)

Target: T1, Met kinase domain (GST fusion protein) (Homo sapiens, UniProt P08581)
T1 construct: Purified GST fusion protein containing the Met kinase domain
Experiment: Met transphosphorylation assay (ELISA, poly(glu-tyr) substrate);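 also: Cell-free ELISA with plate-bound poly(Glu:Tyr 4:1) phosphorylated by GST-fused Met kinase domain plus ATP and Mn2+, phosphotyrosine detected by anti-phosphotyrosine antibody with HRP and ABTS read-out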
Type: biochemical
Conditions: read-out: Met IC50
Description: General procedure is as follows: a compound is introduced to cells expressing the test kinase, either naturally or recombinantly, for a selected period of time after which, if the test kinase is a receptor, a ligand known to activate the receptor is added. The cells are lysed and the lysate is transferred to the wells of an ELISA plate previously coated with a specific antibody recognizing the substrate of the enzymatic phosphorylation reaction. Non-substrate components of the cell lysate are washed away and the amount of phosphorylation on the substrate is detected with an antibody specifically recognizing phosphotyrosine compared with control cells that were not contacted with a test compound.
Met Transphosphorylation Assay
This assay is used to measure phosphotyrosine levels on a poly(glutamic acid:tyrosine, 4:1) substrate as a means for identifying agonists/antagonists of met transphosphorylation of the substrate.
PBS, Gibco Catalog # 450-1300EB • 4. 50 mM HEPES • 5. […] Purified GST fusion protein containing the Met kinase domain, SUGEN, Inc. • 7. TBST Buffer. • 8. 10% aqueous (MilliQue H2O) DMSO. • 9. […] 2× Kinase Dilution Buffer: for 100 mL, mix 10 mL 1M HEPESat pH 7.5 with 0.4 mL 5% BSA/PBS, 0.2 mL 0.1 M sodium orthovanadate and 1 mL 5M sodium chloride in 88.4 mL dH2O. • 11. 4× ATP Reaction Mixture: for 10 mL, mix 0.4 mL 1 M manganese chloride and 0.02 mL 0.1 M ATP in 9.56 mL dH2O. • 12. 4× Negative Controls Mixture: for 10 mL, mix 0.4 mL 1 M manganese chloride in 9.6 mL dH2O. • 13. […] 500 mM EDTA. • 15. Antibody Dilution Buffer: for 100 mL, mix 10 mL 5% BSA/PBS, 0.5 mL 5% Carnation® Instant Milk in PBS and 0.1 mL 0.1 M sodium orthovanadate in 88.4 mL TBST. • 16. Rabbit polyclonal antophosphotyrosine antibody, SUGEN, Inc. • 17. Goat anti-rabbit horseradish peroxidase conjugated antibody, Biosource, Inc. • 18. ABTS Solution: for 1 L, mix 19.21 g citric acid, 35.49 g Na2HPO4 and 500 mg ABTS with sufficient dH2O to make 1 L. • 19. ABTS/H2O2: mix 15 mL ABST solution with 2μL H2O2 five minutes before use. • 20. 0.2 M HCl Procedure: • 1. Coat ELISA plates with 2 μg Poly(Glu-Tyr) in 100 μL PBS, hold-overnight at 4° C. • 2. Block plate with 150 μL of 5% BSA/PBS for 60 min. • 3. Wash plate twice with PBS then once with 50 mM Hepes buffer pH 7.4. • 4. Add 50 μl of the diluted kinase to all wells. (Purified kinase is diluted with Kinase Dilution Buffer. Final concentration should be 10 ng/well.) • 5. Add 25 μL of the test compound (in 4% DMSO) or DMSO alone (4% in dH2O) for controls to plate. • 6. Incubate the kinase/compound mixture for 15 minutes. • 7. Add 25 μL of 40 mM MnCl2 to the negative control wells. • 8. Add 25 μL ATP/MnCl2 mixture to the all other wells (except the negative controls). Incubate for 5 min. • 9. Add 25 μL 500 mM EDTA to stop reaction. • 10. Wash plate 3× with TBST. • 11. Add 100 μL rabbit polyclonal anti-Ptyr diluted 1:10,000 in Antibody Dilution Buffer to each well. Incubate, with shaking, at room temperature for one hour. • 12. Wash plate 3× with TBST. • 13. […] Add 100 μL per well and incubate at room temperature, with shaking, for one hour. • 14. Wash plate 1× with PBS. • 15. Add 100 μl of ABTS/H2O2 solution to each well. • 16. If necessary, stop the development reaction with the addition of 100 μl of 0.2M HCl per well. • 17.

T1 sequence (P08581 1078-1345 limits assumed): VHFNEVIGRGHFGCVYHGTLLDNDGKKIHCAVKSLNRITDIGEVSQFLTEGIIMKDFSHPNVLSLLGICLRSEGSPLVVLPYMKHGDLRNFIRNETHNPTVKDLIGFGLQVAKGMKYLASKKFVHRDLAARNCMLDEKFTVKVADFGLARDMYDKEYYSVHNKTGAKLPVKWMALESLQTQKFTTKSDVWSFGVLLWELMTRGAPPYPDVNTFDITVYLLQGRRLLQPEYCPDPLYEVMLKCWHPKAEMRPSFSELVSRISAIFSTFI

Going from `Nc1ncc(-c2ccc(NS(=O)(=O)CCN3CCOCC3)cc2)nc1OCc1c(F)ccc(F)c1Cl` [II-9, 2-Morpholin-4-yl-ethanesulfonic acid {4-[5-amino-6-(2-chloro-3,6-difluoro-benzyloxy)-pyrazin-2-yl]-phenyl}-amide] to `Nc1ncc(-c2ccc(NS(=O)(=O)CCN3CCCC3)cc2)nc1OCc1c(F)ccc(F)c1Cl` [II-12, 2-Pyrrolidin-1-yl-ethanesulfonic acid {4-[5-amino-6-(2-chloro-3,6-difluoro-benzyloxy)-pyrazin-2-yl]-phenyl}-amide], the IC50 falls from 1260 nM to 580 nM (2.2-fold). The second is the more potent here.

Going from `Nc1ncc(-c2ccc(NS(=O)(=O)CCN3CCCCC3)cc2)nc1OCc1c(F)ccc(F)c1Cl` [II-10, 2-Piperidin-1-yl-ethanesulfonic acid {4-[5-amino-6-(2-chloro-3,6-difluoro-benzyloxy)-pyrazin-2-yl]-phenyl}-amide] to `Nc1ncc(-c2cccc(NS(=O)(=O)CCN3CCCCC3)c2)nc1OCc1c(F)ccc(F)c1Cl` [II-24, 2-Piperidin-1-yl-ethanesulfonic acid {3-[5-amino-6-(2-chloro-3,6-difluoro-benzyloxy)-pyrazin-2-yl]-phenyl}-amide], the IC50 rises from 1200 nM to 3500 nM (2.9-fold).

Compared with `Nc1ncc(-c2ccc(NS(=O)(=O)CCN3CCC(O)CC3)cc2)nc1OCc1c(F)ccc(F)c1Cl` [II-11, 2-(4-Hydroxy-piperidin-1-yl)-ethanesulfonic acid {4-[5-amino-6-(2-chloro-3,6-difluoro-benzyloxy)-pyrazin-2-yl]-phenyl}-amide], `Nc1ncc(-c2ccc(NS(=O)(=O)CCN3CC[C@@H](O)C3)cc2)nc1OCc1c(F)ccc(F)c1Cl` [II-13, 2-[(3R)-3-Hydroxy-pyrrolidin-1-yl]-ethanesulfonic acid {4-[5-amino-6-(2-chloro-3,6-difluoro-benzyloxy)-pyrazin-2-yl]-phenyl}-amide] is 2.4-fold higher in IC50: 650 nM for the first, 1590 nM for the second. The first is the more potent here.

`Nc1ncc(-c2ccc(NS(=O)(=O)CCN3CCC[C@H]3CO)cc2)nc1OCc1c(F)ccc(F)c1Cl` [II-14, 2-[(2S)-2-Hydroxymethyl-pyrrolidin-1-yl]-ethanesulfonic acid {4-[5-amino-6-(2-chloro-3,6-difluoro-benzyloxy)-pyrazin-2-yl]-phenyl}-amide] and `Nc1ncc(-c2ccc(NS(=O)(=O)CCNCC3CC3)cc2)nc1OCc1c(F)ccc(F)c1Cl` [II-15, 2-(Cyclopropylmethyl-amino)-ethanesulfonic acid {4-[5-amino-6-(2-chloro-3,6-difluoro-benzyloxy)-pyrazin-2-yl]-phenyl}-amide] are within 1.5-fold of each other in IC50: 1780 nM for the first, 1280 nM for the second.

First: CN(C)CCS(=O)(=O)Nc1ccc(-c2cnc(N)c(OCc3c(F)ccc(F)c3Cl)n2)cc1 [II-16, 2-Dimethylamino-ethanesulfonic acid {4-[5-amino-6-(2-chloro-3,6-difluoro-benzyloxy)-pyrazin-2-yl]-phenyl}-amide]
Second: CN(C)CCS(=O)(=O)Nc1cccc(-c2cnc(N)c(OCc3c(F)ccc(F)c3Cl)n2)c1 [II-28, 2-Dimethylamino-ethanesulfonic acid {3-[5-amino-6-(2-chloro-3,6-difluoro-benzyloxy)-pyrazin-2-yl]-phenyl}-amide]
The IC50 of the first is 2.5-fold lower: 910 nM for the first, 2280 nM for the second.

Going from `CC(=O)N1CCN(CCS(=O)(=O)Nc2ccc(-c3cnc(N)c(OCc4c(F)ccc(F)c4Cl)n3)cc2)CC1` [II-18, 2-(4-Acetyl-piperazin-1-yl)-ethanesulfonic acid {4-[5-amino-6-(2-chloro-3,6-difluoro-benzyloxy)-pyrazin-2-yl]-phenyl}-amide] to `CC(=O)N1CCN(CCS(=O)(=O)Nc2cccc(-c3cnc(N)c(OCc4c(F)ccc(F)c4Cl)n3)c2)CC1` [II-23, 2-(4-Acetyl-piperazin-1-yl)-ethanesulfonic acid {3-[5-amino-6-(2-chloro-3,6-difluoro-benzyloxy)-pyrazin-2-yl]-phenyl]-amide], the IC50 rises from 1500 nM to 2790 nM (1.9-fold).

First: Nc1ncc(-c2ccc(NS(=O)(=O)CCNC3CC3)cc2)nc1OCc1c(F)ccc(F)c1Cl [II-20, 2-Cyclopropylamino-ethanesulfonic acid {4-[5-amino-6-(2-chloro-3,6-difluoro-benzyloxy)-pyrazin-2-yl]-phenyl}-amide]
Second: Nc1ncc(-c2cccc(NS(=O)(=O)CCNC3CC3)c2)nc1OCc1c(F)ccc(F)c1Cl [II-32, 2-Cyclopropylamino-ethanesulfonic acid {3-[5-amino-6-(2-chloro-3,6-difluoro-benzyloxy)-pyrazin-2-yl]-phenyl}-amide]
The IC50 of the first is 1.7-fold lower: 1290 nM for the first, 2130 nM for the second.

Compared with `Nc1ncc(-c2cccc(NS(=O)(=O)CCN3CCC(O)CC3)c2)nc1OCc1c(F)ccc(F)c1Cl` [II-22, 2-(4-Hydroxy-piperidin-1-yl)-ethanesulfonic acid {3-[5-amino-6-(2-chloro-3,6-difluoro-benzyloxy)-pyrazin-2-yl]-phenyl}-amide], `Nc1ncc(-c2cccc(NS(=O)(=O)CCN3CC[C@@H](O)C3)c2)nc1OCc1c(F)ccc(F)c1Cl` [II-31, 2-[(3R)-3-Hydroxy-pyrrolidin-1-yl]-ethanesulfonic acid {3-[5-amino-6-(2-chloro-3,6-difluoro-benzyloxy)-pyrazin-2-yl]-phenyl}-amide] is 3.1-fold higher in IC50: 700 nM for the first, 2160 nM for the second.

First: CCN(CC)CCS(=O)(=O)Nc1cccc(-c2cnc(N)c(OCc3c(F)ccc(F)c3Cl)n2)c1 [II-25, 2-Diethylamino-ethanesulfonic acid {3-[5-amino-6-(2-chloro-3,6-difluoro-benzyloxy)-pyrazin-2-yl]-phenyl}-amide]
Second: Nc1ncc(-c2cccc(NS(=O)(=O)CCNCC3CC3)c2)nc1OCc1c(F)ccc(F)c1Cl [II-30, 2-(Cyclopropylmethyl-amino)-ethanesulfonic acid {3-[5-amino-6-(2-chloro-3,6-difluoro-benzyloxy)-pyrazin-2-yl]-phenyl}-amide]
The IC50 of the first is 2-fold higher: 3700 nM for the first, 1840 nM for the second. The second is the more potent here.

Compared with `Nc1ncc(-c2cccc(NS(=O)(=O)CCN3CCOCC3)c2)nc1OCc1c(F)ccc(F)c1Cl` [II-26, 2-Morpholin-4-yl-ethanesulfonic acid {3-[5-amino-6-(2-chloro-3,6-difluoro-benzyloxy)-pyrazin-2-yl]-phenyl}-amide], `Nc1ncc(-c2cccc(NS(=O)(=O)CCN3CCCC3)c2)nc1OCc1c(F)ccc(F)c1Cl` [II-27, 2-Pyrrolidin-1-yl-ethanesulfonic acid {3-[5-amino-6-(2-chloro-3,6-difluoro-benzyloxy)-pyrazin-2-yl]-phenyl}-amide] is 1.8-fold lower in IC50: 3300 nM for the first, 1800 nM for the second. The second is the more potent here.

Going from `Nc1ncc(-c2cccc(NS(=O)(=O)CCN3CCN(C(=O)CO)CC3)c2)nc1OCc1c(F)ccc(F)c1Cl` [II-29] to `CN1CCN(C(=O)c2cccc(-c3cnc(N)c(OCc4c(F)ccc(F)c4Cl)n3)c2)CC1` [II-48, {3-[5-Amino-6-(2-chloro-3,6-difluoro-benzyloxy)-pyrazin-2-yl]-phenyl}-(4-methyl-piperazin-1-yl)-methanone], the IC50 rises from 1820 nM to 2850 nM (1.6-fold). The first is the more potent here.

`Nc1ncc(-c2ccc(C(=O)N3CCC[C@@H]3CN3CCCC3)cc2)nc1OCc1c(F)ccc(F)c1Cl` [II-34, {4-[5-Amino-6-(2-chloro-3,6-difluoro-benzyloxy)-pyrazin-2-yl]-phenyl)-[(2R)-2-pyrrolidin-1-ylmethyl-pyrrolidin-1-yl]-methanone] and `Nc1ncc(-c2ccc(C(=O)NCCN3CCCC3)cc2)nc1OCc1c(F)ccc(F)c1Cl` [II-35, 4-[5-Amino-6-(2-chloro-3,6-difluoro-benzyloxy)-pyrazin-2-yl]-N-(2-pyrrolidin-1-yl-ethyl)-benzamide] are within 1.5-fold of each other in IC50: 150 nM for the first, 130 nM for the second.

First: Nc1ncc(-c2ccc(C(=O)N3CC[C@H](N)C3)cc2)nc1OCc1c(F)ccc(F)c1Cl [II-36, {4-[5-Amino-6-(2-chloro-3,6-difluoro-benzyloxy)-pyrazin-2-yl]-phenyl}-[(3S)-3-amino-pyrrolidin-1-yl]-methanone]
Second: Nc1ncc(-c2cccc(C(=O)N3CC[C@@H](N)C3)c2)nc1OCc1c(F)ccc(F)c1Cl [II-49, {3-[5-Amino-6-(2-chloro-3,6-difluoro-benzyloxy)-pyrazin-2-yl]-phenyl}-[(3R)-3-amino-pyrrolidin-1-yl]-methanone]
The IC50 of the first is 2.8-fold lower: 370 nM for the first, 1020 nM for the second. The first is the more potent here.

`CC(=O)N1CCN(CCNC(=O)c2ccc(-c3cnc(N)c(OCc4c(F)ccc(F)c4Cl)n3)cc2)CC1` [II-37, N-[2-(4-Acetyl-piperazin-1-yl)-ethyl]-4-[5-amino-6-(2-chloro-3,6-difluoro-benzyloxy)-pyrazin-2-yl]-benzamide] and `Nc1ncc(-c2ccc(C(=O)NCCN3CCOCC3)cc2)nc1OCc1c(F)ccc(F)c1Cl` [II-45, 4-[5-Amino-6-(2-chloro-3,6-difluoro-benzyloxy)-pyrazin-2-yl]-N-(2-morpholin-4-yl-ethyl)-benzamide] are within 1.5-fold of each other in IC50: 1350 nM for the first, 1110 nM for the second.

`Nc1ncc(-c2ccc(C(=O)NCCCN3CCCC3)cc2)nc1OCc1c(F)ccc(F)c1Cl` [II-38, 4-[5-Amino-6-(2-chloro-3,6-difluoro-benzyloxy)-pyrazin-2-yl]-N-(3-pyrrolidin-1-yl-propyl)-benzamide] and `Nc1ncc(-c2ccc(C(=O)NCCCN3CCOCC3)cc2)nc1OCc1c(F)ccc(F)c1Cl` [II-43, 4-[5-Amino-6-(2-chloro-3,6-difluoro-benzyloxy)-pyrazin-2-yl]-N-(3-morpholin-4-yl-propyl)-benzamide] are within 1.5-fold of each other in IC50: 580 nM for the first, 590 nM for the second.

`CN(C)[C@H]1CCN(C(=O)c2ccc(-c3cnc(N)c(OCc4c(F)ccc(F)c4Cl)n3)cc2)C1` [II-39, {4-[5-Amino-8-(2-chloro-3,6-difluoro-benzyloxy)-pyrazin-2-yl]-phenyl}-[(3S)-3-dimethylamino-pyrrolidin-1-yl]-methanone] and `CN1CCN(C(=O)c2ccc(-c3cnc(N)c(OCc4c(F)ccc(F)c4Cl)n3)cc2)CC1` [II-46, {4-[5-Amino-6-(2-chloro-3,6-difluoro-benzyloxy)-pyrazin-2-yl]-phenyl}-(4-methyl-piperazin-1-yl)-methanone] are within 1.5-fold of each other in IC50: 670 nM for the first, 680 nM for the second.

Compared with `Nc1ncc(-c2cccc(C(=O)N3CC[C@H](N)C3)c2)nc1OCc1c(F)ccc(F)c1Cl` [II-50, {3-[5-Amino-6-(2-chloro-3,6-difluoro-benzyloxy)-pyrazin-2-yl]-phenyl}-[(3S)-3-amino-pyrrolidin-1-yl]-methanone], `Nc1ncc(-c2cccc(C(=O)NCCCN3CCOCC3)c2)nc1OCc1c(F)ccc(F)c1Cl` [II-52, 3-[5-Amino-6-(2-chloro-3,6-difluoro-benzyloxy)-pyrazin-2-yl]-N-(3-morpholin-4-yl-propyl)-benzamide] is 4.6-fold higher in IC50: 910 nM for the first, 4200 nM for the second. The first is the more potent here.
